# Results published in patent US20240400547A1, “2,6-PIPERIDINEDIONE COMPOUND AND APPLICATION THEREOF” (MEDSHINE DISCOVERY INC., priority 2021, published 2024).
# Structures can show the parent of a compound that is named as a salt.
# Key:
# OCI-LY10 = experiment: Antiproliferative effect in lymphoma cell line OCI-LY10 (CellTiter-Glo); assay type: cell-based, human; conditions: OCI-LY10, 5 days; for IC50: Homo sapiens, 120 h
# Method: (§1) Experimental purpose: The experiment aims to evaluate the inhibitory effects of the test compounds on cell proliferation in the diffuse large B-cell lymphoma (DLBCL) cell lines OCI-LY10 and TMD-8.
# (§2) The tumor cell lines were cultured in a 37° C., 5% CO2 incubator under the above culture conditions. Regular passage, and cells in logarithmic growth phase were taken for plating.
# (§3) • (1) Cells were stained with trypan blue and viable cells were counted. • (2) The cell concentration was adjusted to an appropriate concentration.
# (§4) • (3) 100 μL of cell suspension per well was added to the culture plate as shown above. • (4) The culture plate was cultured overnight in a 37° C., 5% CO2 incubator with 100% relative humidity.
# (§5) Preparation of stock solution storage plate with 1000 times the initial concentration of the compound: The compound was serially diluted with DMSO from the highest concentration to the lowest concentration. The solution was prepared as needed each time.
# (§6) 4. Preparation of 1000× Compound Working Solution and Cell Treatment with Compounds • (1) Preparation of the working solution with 5 times the initial concentration of the compound: For 3-fold dilution of the compound, 30 μL of the compound from a stock solution at 1000-fold concentration was taken, and 20 μL of DMSO was added to the subsequent wells. Then, 10 μL was transferred from one concentration to the next in sequence. For 5-fold dilution of the compound, 30 μL of the compound from a stock solution at 1000-fold concentration was taken, and 24 μL of DMSO was added to the subsequent wells. Then, 6 μL was transferred from one concentration to the next in sequence. 20 μL of DMSO was added to the vehicle control. The 1000-fold concentrated compound was diluted 200 times with culture medium, i.e., 1 μL of the 1000-fold diluted compound is added to 199 μL of culture medium, and the mixture was homogenized using a pipette. • (2) Compound addition: 25 μL of the 5-fold compound solution was added to the cell culture plate. • (3) The 96-well cell plate was returned to the incubator to culture OCI-LY10 (with either 3-fold or 5-fold dilution, incubated with compounds added for 5 days) and TMD-8 (with either 3-fold or 5-fold dilution, incubated with compounds added for 5 days).
# (§7) The following steps were performed according to the instructions of Promega CellTiter-Glo luminescent cell viability assay kit (Promega-G7573). • (1) CellTiter-Glo buffer was melted and brought to room temperature. • (2) CellTiter-Glo substrate was brought to room temperature. • (3) CellTiter-Glo working solution was prepared by adding 10 mL of CellTiter-Glo buffer to a vial of CellTiter-Glo substrate to dissolve the substrate. • (4) The mixture was slowly vortexed and shaken to be fully dissolved. • (5) The cell culture plate was taken out and left for 30 minutes to equilibrate to room temperature. • (6) 60 μL of CellTiter-Go working solution was added per well (equal to half the volume of cell culture medium per well). The cell plate was wrapped in aluminum foil to be protected from light. • (7) The culture plate was shaken on an orbital shaker for 2 minutes to induce cell lysis. • (8) The culture plate was left at room temperature for 10 minutes to stabilize the luminescent signal. • (9) The luminescent signal was detected on a 2104 EnVision plate reader.
# (§8) The inhibition rate (IIR) of the test compound was calculated using the following formula: IR (%)=(1−RLU compound/RLU vehicle control)*100%. The inhibition rates of compounds at different concentrations were calculated in Excel, and then GraphPad Prism software was used to plot inhibition curves and calculate relevant parameters, including minimum inhibition rate, maximum inhibition rate, and IC50.
# SU-DHL-2 = experiment: Antiproliferative effect in lymphoma cell line SU-DHL-2 (CellTiter-Glo); assay type: cell-based, human; conditions: SU-DHL-2, 4 days; for IC50: Homo sapiens, 96 h
# Method: Experimental purpose: The experiment aims to evaluate the inhibitory effects of the test compounds on cell proliferation in the lymphoma cell line SU-DHL-2.
# as §2, §3
# • (3) 50 μL of cell suspension per well was added to the culture plate as shown in the figure above. • (4) The culture plate was cultured overnight in a 37° C., 5% CO2 incubator with 100% relative humidity.
# Compounds were added using the Echo655 instrument. The volume of compound added was 50 nL, with a final DMSO concentration of 0.1%. The culture plate was centrifuged at 1000 rpm for 1 minute, then incubated for 4 days in an incubator at 37° C., 5% CO2, and with 100% relative humidity.
# as §7, with “adding” for “adding 10 mL of”, “substrate;” for “substrate.”, “25” for “60”, “CellTiter-Glo” for “CellTiter-Go”
# as §8, with “(IR)” for “(IIR)”, “(%)=(1−(RLU” for “(%)=(1−RLU”, “compound/RLU blank control)/(RLU” for “compound/RLU”, “control−RLU blank control)×100%.” for “control)*100%.”
# TMD-8 = experiment: Antiproliferative effect in lymphoma cell line TMD-8 (CellTiter-Glo); assay type: cell-based; conditions: TMD-8, 5 days; for IC50: Homo sapiens, TMD8, 120 h
# Method: as §1, §2, §3, §4, §5, §6, §7, §8
Structure (SMILES),IC50 (OCI-LY10),Maximum inhibition rate (OCI-LY10),IC50 (SU-DHL-2),Maximum inhibition rate (SU-DHL-2),IC50 (TMD-8),Maximum inhibition rate (TMD-8)
CC(C)(O)c1cc2nc([C@H]3CC[C@H](CN4CCN(CC(=O)Nc5ccc6c(ccc7onc(C8CCC(=O)NC8=O)c76)c5)CC4)CC3)sc2cc1NC(=O)c1cccc(C(F)(F)F)n1 (some centres unmarked) [Formate of WX020],25 nM,94.96%,,,,
CC(C)(O)c1cc2nc([C@H]3CC[C@H](CN4CCN(CC(=O)Nc5ccc6c(C7CCC(=O)NC7=O)noc6c5)CC4)CC3)sc2cc1NC(=O)c1cccc(C(F)(F)F)n1 (some centres unmarked) [Formate of WX026],,,0.91 nM,100.08%,8.65 nM,99.92%
O=C1CCC(c2coc3cc(NC(=O)CN4CCN(C[C@H]5CC[C@H](N6CC(NC(=O)c7coc(-c8ccnc(NCC9CC9)c8)n7)C(C(F)F)N6)CC5)CC4)ccc23)C(=O)N1 (some centres unmarked) [Hydrochloride of WX002],192 nM,63.27%,,,92 nM,83.31%
O=C1CCC(c2noc3ccc4c(NC(=O)CN5CCN(C[C@H]6CC[C@H](n7cc(NC(=O)c8coc(-c9ccnc(NCC%10CC%10)c9)n8)c(C(F)F)n7)CC6)CC5)cccc4c23)C(=O)N1 (some centres unmarked) [Hydrochloride of WX014],13.7 nM,94.54%,28.7 nM,93.55%,10.3 nM,89.86%
O=C1CCC(c2noc3ccc4c(NC(=O)C(F)(F)C5CCN(CC6CCC(n7cc(NC(=O)c8coc(-c9ccnc(NCC%10CC%10)c9)n8)c(C(F)F)n7)CC6)CC5)cccc4c23)C(=O)N1 (centres unmarked) [Hydrochloride of WX018],6.99 nM,99.92%,11.7 nM,100.27%,12.8 nM,99.53%
O=C1CCC(c2noc3cc(NC(=O)CN4CCN(C[C@H]5CC[C@H](n6cc(NC(=O)c7coc(-c8ccnc(NCC9CC9)c8)n7)c(C(F)F)n6)CC5)CC4)ccc23)C(=O)N1 (some centres unmarked) [Hydrochloride of WX025],24.4 nM,97.39%,,,,
O=C1CCC(c2noc3c(NC(=O)CN4CCN(C[C@H]5CC[C@H](n6cc(NC(=O)c7coc(-c8ccnc(NCC9CC9)c8)n7)c(C(F)F)n6)CC5)CC4)cccc23)C(=O)N1 (some centres unmarked) [Hydrochloride of WX028],85.2 nM,99.01%,,,,
O=C1CCC(c2coc3ccc4c(NC(=O)CN5CCN(C[C@H]6CC[C@H](n7cc(NC(=O)c8coc(-c9ccnc(NCC%10CC%10)c9)n8)c(C(F)F)n7)CC6)CC5)cccc4c23)C(=O)N1 (some centres unmarked) [Trifluoroacetate of WX011],17 nM,93.42%,25.2 nM,99.89%,17 nM,94.65%
